Measured values published in ChEMBL document CHEMBL1201862, “PubChem BioAssay data set” (2004).
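These data come from cells grown in 96-well plates and exposed to compound for 48 hours at five concentrations. GI50 = concentration required for 50% inhibition of growth.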 Calls of active or inactive are those of the source. No stated cut-off is given here; in the data, active = GI50 up to about 1.1 µM and inactive = higher.

How the values were obtained:
Test in all cases: growth of human tumour cells (NCI), 48 h
786-0 = test system: 786-0
A498 = test system: A498
ACHN = test system: ACHN
BT-549 = test system: BT-549
CAKI-1 = test system: CAKI-1
CCRF-CEM = test system: CCRF-CEM
COLO 205 = test system: COLO 205
DU-145 = test system: DU-145
EKVX = test system: EKVX
HCC 2998 = test system: HCC 2998
HCT-116 = test system: HCT-116
HCT-15 = test system: HCT-15
HL-60 = test system: HL-60
HOP-62 = test system: HOP-62
HOP-92 = test system: HOP-92
HT-29 = test system: HT-29
Hs-578T = test system: Hs-578T
IGROV-1 = test system: IGROV-1
K562 = test system: K562
KM12 = test system: KM12
LOX IMVI = test system: LOX IMVI
M14 = test system: M14
MCF7 = test system: MCF7
MDA-MB-231 = test system: MDA-MB-231
MDA-MB-435 = test system: MDA-MB-435
MOLT-4 = test system: MOLT-4
NCI-H226 = test system: NCI-H226
NCI-H23 = test system: NCI-H23
NCI-H460 = test system: NCI-H460
NCI/ADR-RES = test system: NCI/ADR-RES
OVCAR-4 = test system: OVCAR-4
OVCAR-8 = test system: OVCAR-8
PC-3 = test system: PC-3
RPMI-8226 = test system: RPMI-8226
RXF 393 = test system: RXF 393
SF-268 = test system: SF-268
SF-295 = test system: SF-295
SF-539 = test system: SF-539
SK-MEL-28 = test system: SK-MEL-28
SK-MEL-2 = test system: SK-MEL-2
SK-MEL-5 = test system: SK-MEL-5
SK-OV-3 = test system: SK-OV-3
SNB-19 = test system: SNB-19
SNB-75 = test system: SNB-75
SR = test system: SR
SW-620 = test system: SW-620
T47D = test system: T47D
TK-10 = test system: TK-10
U-251 = test system: U-251
UACC-257 = test system: UACC-257
UACC-62 = test system: UACC-62
UO-31 = test system: UO-31
A549 = test system: A549
NCI-H522 = test system: NCI-H522
OVCAR-3 = test system: OVCAR-3
OVCAR-5 = test system: OVCAR-5
SN12C = test system: SN12C
Malme-3M = test system: Malme-3M
MDA-N = test system: MDA-N

Measured: GI50

Cc1nc2cn3c(c2c(=O)[nH]1)CCCCC3
inactive: 786-0 > 100 µM | A498 > 100 µM | ACHN > 100 µM | BT-549 > 100 µM | CAKI-1 > 100 µM | CCRF-CEM > 100 µM | COLO 205 > 100 µM | DU-145 > 100 µM | EKVX > 100 µM | HCC 2998 > 100 µM | HCT-116 > 100 µM | HL-60 > 100 µM | HOP-62 > 100 µM | HOP-92 > 100 µM | HT-29 > 100 µM | Hs-578T > 100 µM | IGROV-1 > 100 µM | K562 > 100 µM | KM12 > 100 µM | LOX IMVI > 100 µM | M14 > 100 µM | MCF7 > 100 µM | MDA-MB-231 28.2 µM | MDA-MB-435 > 100 µM | MOLT-4 > 100 µM | NCI-H226 > 100 µM | NCI-H23 > 100 µM | NCI-H460 > 100 µM | NCI/ADR-RES > 100 µM | OVCAR-4 > 100 µM | OVCAR-8 > 100 µM | PC-3 > 100 µM | RPMI-8226 > 100 µM | RXF 393 > 100 µM | SF-268 > 100 µM | SF-295 > 100 µM | SF-539 > 100 µM | SK-MEL-28 > 100 µM | SK-MEL-2 > 100 µM | SK-MEL-5 > 100 µM | SK-OV-3 > 100 µM | SNB-19 > 100 µM | SNB-75 > 100 µM | SR > 100 µM | SW-620 > 100 µM | T47D > 100 µM | TK-10 > 100 µM | U-251 > 100 µM | UACC-257 > 100 µM | UACC-62 > 100 µM | UO-31 > 100 µM
> 100 µM: HCT-15

COc1ccc(C(C)c2cc3c(cc2O)OCO3)cc1 (stereo unspecified)
inactive: 786-0 17.9 µM | A498 14.8 µM | A549 14.7 µM | ACHN 19.7 µM | BT-549 16.7 µM | CAKI-1 25.2 µM | COLO 205 14.3 µM | DU-145 18.6 µM | EKVX 20.3 µM | HCC 2998 7.01 µM | HCT-116 15.9 µM | HL-60 13.2 µM | HOP-62 16.4 µM | HOP-92 16.3 µM | HT-29 12.6 µM | Hs-578T 20.5 µM | IGROV-1 15.8 µM | K562 6 µM | KM12 12.9 µM | LOX IMVI 13.2 µM | M14 13.8 µM | MCF7 15.1 µM | MDA-MB-231 14.2 µM | MDA-MB-435 4.56 µM | MOLT-4 9.02 µM | NCI-H226 19.7 µM | NCI-H23 16.2 µM | NCI-H460 14.7 µM | NCI-H522 11.4 µM | NCI/ADR-RES 10.8 µM | OVCAR-3 13.9 µM | OVCAR-4 31.3 µM | OVCAR-5 20.6 µM | OVCAR-8 16.7 µM | PC-3 15.7 µM | RPMI-8226 16.8 µM | RXF 393 14.8 µM | SF-268 14.9 µM | SF-295 14.3 µM | SF-539 16.9 µM | SK-MEL-28 16.8 µM | SK-MEL-2 14.9 µM | SK-MEL-5 14.8 µM | SK-OV-3 19.7 µM | SN12C 18.6 µM | SNB-19 23.5 µM | SNB-75 20.3 µM | SR 2.74 µM | SW-620 11.5 µM | T47D 24.9 µM | TK-10 16.3 µM | U-251 15.1 µM | UACC-257 15.6 µM | UACC-62 12.1 µM | UO-31 16.2 µM
7.33 µM: HCT-15

CCOc1ccc(NCC2CC/C(=C\C=C\c3ccccc3)C2=O)cc1 (stereo unspecified)
5.41 µM: HCT-15
inactive: 786-0 5.25 µM | A498 28.6 µM | A549 42.1 µM | ACHN 30.5 µM | BT-549 15.2 µM | CAKI-1 12.7 µM | CCRF-CEM 6.75 µM | COLO 205 13.7 µM | DU-145 33.2 µM | EKVX 37.3 µM | HCC 2998 31.9 µM | HCT-116 6.98 µM | HL-60 17.8 µM | HOP-62 29.9 µM | HOP-92 16.1 µM | HT-29 13.5 µM | Hs-578T 29 µM | IGROV-1 12.5 µM | K562 3.61 µM | KM12 6.07 µM | LOX IMVI 11 µM | M14 13.7 µM | MCF7 3.18 µM | MDA-MB-231 9.14 µM | MDA-MB-435 12.2 µM | MOLT-4 5.2 µM | Malme-3M 22 µM | NCI-H226 44.7 µM | NCI-H23 18 µM | NCI-H460 32 µM | NCI-H522 8.61 µM | NCI/ADR-RES 25.7 µM | OVCAR-3 18 µM | OVCAR-4 27.5 µM | OVCAR-5 21.5 µM | OVCAR-8 16.9 µM | PC-3 23.6 µM | RPMI-8226 10.9 µM | RXF 393 16.1 µM | SF-268 16.4 µM | SF-295 26.5 µM | SF-539 18.9 µM | SK-MEL-28 16.4 µM | SK-MEL-2 > 100 µM | SK-MEL-5 16 µM | SK-OV-3 > 100 µM | SN12C 16.6 µM | SNB-19 24 µM | SNB-75 23.2 µM | SR 4 µM | SW-620 5.83 µM | T47D 17.3 µM | TK-10 19.9 µM | U-251 18.8 µM | UACC-257 18.5 µM | UACC-62 24.4 µM | UO-31 26.6 µM

COc1ccc(/C=C2\CCC(C)/C(=C\c3ccc(OC)c(OC)c3)C2=O)cc1OC (stereo unspecified)
5.37 µM: HCT-15
inactive: 786-0 5.11 µM | A498 9.08 µM | ACHN 4.79 µM | BT-549 4.6 µM | CAKI-1 5.82 µM | CCRF-CEM 2.11 µM | COLO 205 8.39 µM | DU-145 3.73 µM | EKVX 2.13 µM | HCT-116 3.78 µM | HL-60 1.73 µM | HT-29 4.38 µM | Hs-578T 12.6 µM | IGROV-1 2.88 µM | K562 3.36 µM | KM12 2.55 µM | LOX IMVI 4.33 µM | M14 5.38 µM | MCF7 4.85 µM | MDA-MB-231 7.8 µM | MDA-MB-435 3.76 µM | MDA-N 5.87 µM | MOLT-4 3.23 µM | Malme-3M 4.58 µM | NCI-H226 4.65 µM | NCI-H23 3.94 µM | NCI/ADR-RES 3.5 µM | OVCAR-3 13.6 µM | OVCAR-5 3.59 µM | OVCAR-8 3.76 µM | PC-3 3.39 µM | RPMI-8226 2.51 µM | RXF 393 5.06 µM | SF-268 6.89 µM | SF-295 5.36 µM | SF-539 3.42 µM | SK-MEL-28 10.7 µM | SK-MEL-2 3.82 µM | SK-MEL-5 3.61 µM | SK-OV-3 9.2 µM | SN12C 7.29 µM | SNB-19 11.2 µM | SW-620 6.59 µM | T47D 3.35 µM | TK-10 2.61 µM | U-251 5.43 µM | UACC-257 2.88 µM | UACC-62 6.21 µM | UO-31 8.45 µM

C=CCc1cccc2cc(C(N)=O)c(=N)oc12
inactive: 786-0 73.8 µM | A498 77.3 µM | A549 > 100 µM | ACHN 61.9 µM | BT-549 > 100 µM | CAKI-1 > 100 µM | CCRF-CEM 52.8 µM | COLO 205 > 100 µM | DU-145 > 100 µM | HCC 2998 > 100 µM | HCT-116 78.2 µM | HL-60 > 100 µM | HOP-62 > 100 µM | HOP-92 68.7 µM | HT-29 > 100 µM | Hs-578T > 10 µM | IGROV-1 23.8 µM | KM12 > 100 µM | LOX IMVI 84.7 µM | M14 > 100 µM | MDA-MB-231 > 100 µM | MDA-MB-435 95.7 µM | MDA-N > 100 µM | MOLT-4 > 100 µM | NCI-H226 43.9 µM | NCI-H23 > 100 µM | NCI-H460 > 100 µM | NCI/ADR-RES > 100 µM | OVCAR-3 > 100 µM | OVCAR-4 > 100 µM | OVCAR-5 > 100 µM | OVCAR-8 > 100 µM | PC-3 > 100 µM | RPMI-8226 > 100 µM | RXF 393 > 100 µM | SF-268 > 10 µM | SK-MEL-28 > 100 µM | SK-MEL-2 99.5 µM | SK-MEL-5 > 100 µM | SK-OV-3 90.2 µM | SN12C > 100 µM | SNB-19 > 100 µM | SNB-75 54.7 µM | SR 40.6 µM | SW-620 > 100 µM | T47D 41.5 µM | U-251 > 100 µM | UACC-257 > 100 µM | UACC-62 71.8 µM
> 100 µM: HCT-15
